Where two headings read alike, the source gives them in different places.
What was measured:
GLS1 = GLS1 (Homo sapiens (Human), UniProt O94925); assay: GLS Enzyme Potency Assay (Glutamate Oxidase/AmplexRed coupled assay); type: biochemical
Source text: (§1) The following assays were used to measure the effects of the compounds described herein: a) GLS Enzyme Potency Assay; b) GLS Cell Potency Assay; c) GLS Cell Proliferation Assay. During the description of the assays, generally: • i. The following abbreviations have been used: CO2=Carbon dioxide; DMEM=Dulbecco's Modified Eagle Medium; DMSO=Dimethyl sulphoxide; EDTA=Ethylenediaminetetraacetic acid; EGTA=Ethylene glycol tetraacetic acid; FCS=Foetal calf serum; h=Hour(s); NBS=Non-binding surface; SDS=Sodium dodecyl sulphate; TRIS=Tris(Hydroxymethyl)aminomethane. • ii. IC50 values were calculated using a smart fitting model in Genedata.
Assay a): GLS Enzyme Potency Assay
A Glutamate Oxidase/AmplexRed coupled assay was used to measure the ability of compounds to bind to and inhibit the activity of GLS1 in vitro. […] GLS1 was diluted to 2× working concentration and incubated at room temperature to allow the tetrameric/dimeric forms to reach steady state. Assay measurements were performed in buffer comprising 50 mM TRIS pH 7.8, 100 mM NaPO4, pH 7.8, 0.001% v/v Tween20. Purified recombinant GLS1 protein was diluted in assay buffer to 12 nM and pre-incubated at room temperature for 30 minutes. […] DMSO concentration was maintained at 2% by back filling with DMSO solution. 3 μL of diluted GLS1 protein (12 nM) was then dispensed into each well using a BioRaptr automated dispenser (Beckman-Coulter) and incubated for 15 minutes at room temperature. 3 μL of 100 mM glutamine diluted in assay buffer was then added and the reaction incubated at room temperature for 60 minutes. […] An artefact version of the assay where the 6His tagged GLS protein and glutamine were replaced with assay buffer was also used to rule out non specific effects on the assay components.

cellular GLS activity = cellular GLS activity (Homo sapiens (Human), UniProt O94925); assay: GLS Cell Potency Assay (PC3 coupled assay measuring cellular glutamate depletion); type: cell-based; conditions: PC3 cells, 6 h incubation, glutamate depletion; read-out: Assay b) GLS cell MOA Mean IC50
Chain of cellular GLS activity (O94925 73-669): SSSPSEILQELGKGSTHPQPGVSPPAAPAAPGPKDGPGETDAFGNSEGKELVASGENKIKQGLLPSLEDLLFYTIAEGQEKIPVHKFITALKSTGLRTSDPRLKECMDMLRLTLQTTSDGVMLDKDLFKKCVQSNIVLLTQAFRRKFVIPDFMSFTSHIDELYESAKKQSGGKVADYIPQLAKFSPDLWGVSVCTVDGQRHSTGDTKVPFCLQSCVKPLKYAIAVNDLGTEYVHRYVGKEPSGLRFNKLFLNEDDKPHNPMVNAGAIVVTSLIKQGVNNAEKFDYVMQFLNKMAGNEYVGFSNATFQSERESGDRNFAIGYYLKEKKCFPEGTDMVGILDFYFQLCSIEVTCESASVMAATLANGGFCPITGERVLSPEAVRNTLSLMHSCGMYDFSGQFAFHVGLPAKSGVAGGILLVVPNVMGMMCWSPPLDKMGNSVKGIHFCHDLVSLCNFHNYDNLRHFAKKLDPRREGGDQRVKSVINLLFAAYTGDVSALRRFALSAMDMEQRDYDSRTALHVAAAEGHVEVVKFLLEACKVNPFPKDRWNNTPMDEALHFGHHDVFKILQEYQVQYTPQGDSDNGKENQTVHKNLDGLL
Source text: as §1
Assay b): GLS Cell Potency Assay
Compounds were assessed for their potential to inhibit cellular GLS activity by use of a PC3 coupled assay measuring cellular glutamate depletion. […] DMSO concentration was maintained at 0.3% by back filling with DMSO solution. PC3 cells were grown in phenol free DMEM, 10% dialyzed FCS, 2 mM glutamine and following dispersal by trypsinisation were plated at 5.6×10^3 cells per well in 40 μl of growth medium directly into the 384 well assay plates containing dispensed compound. After incubation for 6 h at 37° C., 5% CO2 growth media was aspirated and cells lysed in 15 μl of buffer containing 10 mM TRIS pH7.4, 100 mM NaCl, 1 mM EDTA, 1 mM EGTA, 1 mM NaF, 20 mM Na4P2O7, 2 mM Na3VO4, 1% Triton X-100, 10% glycerol, 0.1% SDS and 0.5% deoxycholate.

NCI-H1703 cells = assay: GLS Cell Proliferation Assay (NCI-H1703 cell proliferation); type: cell-based
Source text: as §1
Assay c): GLS Cell Proliferation Assay
The ability of compounds to inhibit cell growth was measured using a 384 well plate NCI-H1703 cell proliferation assay. NCI-H1703 cells were grown in phenol red free RPMI1640, 10% FCS and 2 mM glutamine and seeded at a density of 750 cells per well in 40 μl of growth medium into clear-bottom 384 well assay plates (Corning product code 3712) and incubated for 24 h at 37° C., 5% CO2. Test compounds were prepared by dilution in 100% DMSO to give the correct dose range for 12 point concentration response and an appropriate volume (5-120 nl) dispensed directly into the assay plates containing plated cells. DMSO concentration was maintained at 0.3% by back filling with DMSO solution. Plates were incubated for 5 days at 37° C., 5% CO2, Sytox Green and Saponin added to final concentration of 2 μM and 0.25% respectively and incubated for 6 h prior to analysis. Plates were read on an Acumen eX3 (TTP Labtech) using 488 nm excitation and FITC filter set (500-530 nm) for emission. IC50 values were calculated by curve fitting to max inhibition of day zero growth using GeneData software analysis.

[1] = NCI-H1703 cells, 5 days; read-out: Assay c) Prolif Mean IC50
[2] = 6His tagged GLS protein (amino acids 63-669), glutamine substrate; read-out: Assay a) enz IC50
[3] = Homo sapiens, NCI-H1703, 120 h, NCI-H1703 cells, 5 days; read-out: Assay c) Prolif Mean IC50

Chain of GLS1 (O94925 63-669): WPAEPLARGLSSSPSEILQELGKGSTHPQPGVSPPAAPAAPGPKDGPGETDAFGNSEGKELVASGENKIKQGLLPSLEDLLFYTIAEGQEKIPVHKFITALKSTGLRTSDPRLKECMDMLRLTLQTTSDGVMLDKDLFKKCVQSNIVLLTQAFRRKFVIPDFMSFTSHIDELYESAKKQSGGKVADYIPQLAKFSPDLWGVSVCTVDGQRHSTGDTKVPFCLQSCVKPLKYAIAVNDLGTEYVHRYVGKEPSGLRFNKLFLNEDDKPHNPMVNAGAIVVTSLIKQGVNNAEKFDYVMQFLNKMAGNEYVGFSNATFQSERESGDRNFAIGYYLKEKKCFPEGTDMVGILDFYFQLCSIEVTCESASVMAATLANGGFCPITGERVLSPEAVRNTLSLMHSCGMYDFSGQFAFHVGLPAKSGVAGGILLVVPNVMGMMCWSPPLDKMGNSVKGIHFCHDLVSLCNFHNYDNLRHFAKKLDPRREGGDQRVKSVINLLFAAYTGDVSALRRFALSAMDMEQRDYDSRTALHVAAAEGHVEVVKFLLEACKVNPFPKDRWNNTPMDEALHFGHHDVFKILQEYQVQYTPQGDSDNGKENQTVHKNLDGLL

Compound | IC50 (GLS1; read-out: Assay a) enz IC50) [nM] | IC50 (cellular GLS activity) [nM] | IC50 (NCI-H1703 cells; [1]) [nM] | IC50 (GLS1; [2]) [nM] | IC50 (NCI-H1703 cells; [3]) [nM]
CCO[C@H](C(=O)Nc1nnc(N[C@@H]2CCN(c3ccc(C)nn3)C2)s1)c1cccc(OC)c1 (single isomer, unassigned) [4(b)] | 290 | 43.1 | 389 |  | 
CO[C@H](C(=O)Nc1nnc(N[C@@H]2CCN(c3ccc(C)nn3)C2)s1)c1ccc(F)cc1 (single isomer, unassigned) [5(b)] | 975 |  | 1020 |  | 
COc1cc([C@H](OC)C(=O)Nc2nnc(N[C@@H]3CCN(c4ccc(C)nn4)C3)s2)ccc1F (single isomer, unassigned) [6(b)] |  |  | 926 |  | 
CO[C@H](C(=O)Nc1nnc(N[C@@H]2CCN(c3ccc(C)nn3)C2)s1)c1cccc(OC(F)(F)F)c1 (single isomer, unassigned) [7(b)] | 334 | 12.7 | 25.6 |  | 
CO[C@H](C(=O)Nc1nnc(N[C@@H]2CCN(c3ccc(C)nn3)C2)s1)c1cccc(OC(F)F)c1 (single isomer, unassigned) [8(a)] |  | 1.3 | 5.48 | 99.4 | 
CO[C@H](C(=O)Nc1nnc(N[C@@H]2CCN(c3ccc(C)nn3)C2)s1)c1cccc(OC(F)F)c1 (single isomer, unassigned) [8(b)] |  | 22.1 | 117 | 643 | 
CO[C@H](C(=O)Nc1nnc(N[C@@H]2CCN(c3cc(C)cnn3)C2)s1)c1ccc(F)cc1 (single isomer, unassigned) [10(b)] |  |  | 204 |  | 
COc1ccc([C@H](OC)C(=O)Nc2nnc(N[C@@H]3CCN(c4cc(Cl)cnn4)C3)s2)cc1 (single isomer, unassigned) [11(b)] | 84.8 | 10.5 | 129 |  | 
COc1ccc([C@H](OC)C(=O)Nc2nnc(N[C@@H]3CCN(c4cc(C)cnn4)C3)s2)cc1 (single isomer, unassigned) [33(b)] |  | 2.35 | 37.9 | 79.9 | 
COc1cccc([C@H](OC)C(=O)Nc2nnc(N[C@@H]3CCN(c4ccc(C)nn4)C3)s2)c1 (single isomer, unassigned) [Example 1(a)] |  | 0.566 | 4.59 | 55.4 | 
COc1cccc([C@H](OC)C(=O)Nc2nnc(N[C@@H]3CCN(c4ccc(C)nn4)C3)s2)c1 (single isomer, unassigned) [Example 1(b)] | 406 | 137 | 454 |  | 
CCO[C@H](C(=O)Nc1nnc(N[C@@H]2CCN(c3ccc(C)nn3)C2)s1)c1cccc(OC)c1 (single isomer, unassigned) [Example 4(a)] |  | 0.457 | 6.64 | 79.2 | 
CO[C@H](C(=O)Nc1nnc(N[C@@H]2CCN(c3ccc(C)nn3)C2)s1)c1ccc(F)cc1 (single isomer, unassigned) [Example 5(a)] |  | 2.78 | 44.1 | 155 | 
COc1cc([C@H](OC)C(=O)Nc2nnc(N[C@@H]3CCN(c4ccc(C)nn4)C3)s2)ccc1F (single isomer, unassigned) [Example 6(a)] |  |  | 20.9 |  | 
CO[C@H](C(=O)Nc1nnc(N[C@@H]2CCN(c3ccc(C)nn3)C2)s1)c1cccc(OC(F)(F)F)c1 (single isomer, unassigned) [Example 7(a)] |  | 0.556 | 3.08 | 95.2 | 
CO[C@H](C(=O)Nc1nnc(N[C@@H]2CCN(c3cc(C)cnn3)C2)s1)c1ccc(F)cc1 (single isomer, unassigned) [Example 10(a)] |  |  | 1210 |  | 

Compound | IC50 (GLS1; read-out: Assay a) enz IC50) [nM] | IC50 (cellular GLS activity) [nM] | IC50 (NCI-H1703 cells; [1]) [nM] | IC50 (GLS1; [2]) [nM] | IC50 (NCI-H1703 cells; [3]) [nM]
COc1ccc([C@H](OC)C(=O)Nc2nnc(N[C@@H]3CCN(c4cc(Cl)cnn4)C3)s2)cc1 (single isomer, unassigned) [Example 11(a)] |  |  | 54.4 | 15.9 | 
CCOC(C(=O)Nc1nnc(N[C@@H]2CCN(c3ccc(C)nn3)C2)s1)c1ccc(OC)cc1 (single isomer, unassigned) [Example 15] |  | 34.8 | 567 | 277 | 
CCOC(C(=O)Nc1nnc(N[C@@H]2CCN(c3ccc(C)nn3)C2)s1)c1ccc(OC)cc1 (single isomer, unassigned) [Example 16] |  | 2.74 | 55 | 80.9 | 
COC(C(=O)Nc1nnc(N[C@@H]2CCN(c3ccc(F)nn3)C2)s1)c1cccc(OC(F)(F)F)c1 (single isomer, unassigned) [Example 17] |  | 0.251 | 1.74 | 24.3 | 
COC(C(=O)Nc1nnc(N[C@@H]2CCN(c3ccc(F)nn3)C2)s1)c1cccc(OC(F)(F)F)c1 (single isomer, unassigned) [Example 18] |  | 4.91 | 16.8 | 65.3 | 
COC(C(=O)Nc1nnc(N[C@@H]2CCN(c3ccc(F)nn3)C2)s1)c1ccc(F)cc1 (single isomer, unassigned) [Example 19] |  | 4.7 | 71.9 | 55.7 | 
COC(C(=O)Nc1nnc(N[C@@H]2CCN(c3ccc(F)nn3)C2)s1)c1ccc(F)cc1 (single isomer, unassigned) [Example 20] |  | 79.5 | 1270 | 323 | 
COc1ccc(C(OC)C(=O)Nc2nnc(N[C@@H]3CCN(c4ccc(F)nn4)C3)s2)cc1 (single isomer, unassigned) [Example 21] |  | 53.7 | 930 | 223 | 
COc1ccc(C(OC)C(=O)Nc2nnc(N[C@@H]3CCN(c4ccc(F)nn4)C3)s2)cc1 (single isomer, unassigned) [Example 22] |  | 2.45 | 36.9 | 18.9 | 
COc1cc(C(OC)C(=O)Nc2nnc(N[C@@H]3CCN(c4ccc(F)nn4)C3)s2)ccc1F (single isomer, unassigned) [Example 23] |  | 197 | 106 | 265 | 
COc1cc(C(OC)C(=O)Nc2nnc(N[C@@H]3CCN(c4ccc(F)nn4)C3)s2)ccc1F (single isomer, unassigned) [Example 24] |  | 1.01 | 11.6 | 71.3 | 
CO[C@@H](C(=O)Nc1nnc(N[C@@H]2CCN(c3ccc(F)nn3)C2)s1)c1cccc(OC(F)F)c1 [9(b), (2R)-2-[3-(difluoromethoxy)phenyl]-N-[5-[[(3R)-1-(6-fluoropyridazin-3-yl)pyrrolidin-3-yl]amino]-1,3,4-thiadiazol-2-yl]-2-methoxy-acetamide] |  |  |  |  | 469
COc1cccc([C@H](OC)C(=O)Nc2nnc(N[C@@H]3CCN(c4ccc(F)nn4)C3)s2)c1 [Example 3, (2S)-N-[5-[[(3R)-1-(6-Fluoropyridazin-3-yl)pyrrolidin-3-yl]amino]-1,3,4-thiadiazol-2-yl]-2-methoxy-2-(3-methoxyphenyl)acetamide] |  |  |  |  | 3.62
CO[C@H](C(=O)Nc1nnc(N[C@@H]2CCN(c3ccc(F)nn3)C2)s1)c1cccc(OC(F)F)c1 [Example 9(a), (2S)-2-[3-(difluoromethoxy)phenyl]-N-[5-[[(3R)-1-(6-fluoropyridazin-3-yl)pyrrolidin-3-yl]amino]-1,3,4-thiadiazol-2-yl]-2-methoxy-acetamide] |  |  |  |  | 3.09
COc1ccc(C(OC)C(=O)Nc2nnc(N[C@@H]3CCN(c4ccc(C)nn4)C3)s2)cc1 (stereo partly drawn) [Example 29, 2-methoxy-2-(4-methoxyphenyl)-N-[5-[[(3R)-1-(6-methylpyridazin-3-yl)pyrrolidin-3-yl]amino]-1,3,4-thiadiazol-2-yl]acetamide] |  |  | 586 | 1280 | 

From patent publication US9938265B2, “1,3,4-thiadiazole compounds and their use in treating cancer” (AstraZeneca AB, priority 2015, dated 2018)
